Assay results reported in US20150183737A1, “COMPOSITIONS AND METHODS FOR SUBSTRATE-SELECTIVE INHIBITION OF ENDOCANNABINOID OXYGENATION” (Vanderbilt University, priority 2012, published 2015).
Entries after “also recorded” stand apart in the source; their conditions may differ.

Assays:
[1] = system: brain eCB, AA and PG levels; assay: Brain eCB, NAE, MAG, AA and PG levels after i.p. injection; type: in vivo, mice
[2] = Gastrointestinal hemorrhage; details: in vivo
[3] = Detection of Compound A in brain extract; details: 2 hours after i.p. injection, LC-MS/MS
ICR mice = assay: Novel object recognition; type: in vivo; details: 10 mg/kg i.p., prior to object memory retrieval
Method: Mice were handled 4 days prior to training for at least 1 min per day. During pre-training, mice were placed in an open Plexiglas rectangular chamber for 10 minutes in order for the mice to become familiar with the testing environment. Twenty-four hours later, the mice were placed into the same rectangular chamber with two identical sample objects, yellow rubber ducks, for 10 minutes in order for the mice to become familiar with the objects. During training, the sample objects were placed in opposite corners in the back of the chamber 5 cm from each wall and secured by weight to the floor of the chamber. Twenty-four hours later, the mice were placed into the chamber again with one sample or familiar object and a novel object, a white leaf statue, for 5 minutes. During testing, the objects were placed in opposite corners in the back of the chamber 5 cm from each wall and secured by weight to the floor of the chamber.
To determine exploration time with the sample and novel objects, each mouse was timed when interacting with the sample or novel object when the nose of the mouse was in contact with the object or directed toward the object within a 2 cm distance of the object. […] In addition, a discrimination ratio (e.g., ratio of a mouse's interaction with a novel object to that mouse's total interaction with both sample and novel objects) was determined. […]

[4] = 10 mg/kg i.p. (Compound A: any dose tested), 2 hours
[5] = 2 hours after i.p administration, dose not stated

COc1ccc2c(c1)c(CC(=O)N1CCOCC1)c(C)n2C(=O)c1ccc(Cl)cc1 [Compound A, 2-[1-(4-Chloro-benzoyl)-5-methoxy-2-methyl-1H-indol-3-yl]-1-morpholin-4-yl-ethanone]
Whole brain AEA levels ([1]; 3 mg/kg i.p., 2 hours, male ICR mice): significantly increased | Brain 2-AG levels in wild type littermates of COX-2 knockout mice ([1]; 10 mg/kg): significantly increased | Brain 2-AG levels, meta-analysis of 12 cohorts ([1]; 10 mg/kg): 109 % of vehicle | Brain AA or PG levels in WT or COX-2^(−/−) mice ([1]; 10 mg/kg): did not affect | Brain AEA levels in wild type littermates of COX-2 knockout mice ([1]; 10 mg/kg): significantly increased | Brain AEA, meta-analysis of 12 cohorts ([1]; 10 mg/kg): 139 % of vehicle | Brain levels of MAGs other than 2-AG ([1]; 10 mg/kg): did not affect | Brain AA levels [1, 4]: did not significantly affect | Brain PG levels [1, 4]: did not affect | Brain 2-AG levels ([1]; 10 mg/kg i.p. (highest dose), 2 hours, vs vehicle): non-significant trend to increase; also recorded: significantly increased | Brain levels of NAEs other than AEA ([1]; 10 mg/kg i.p., 2 hours): not any other NAE; also recorded: no other NAE | Brain AEA levels ([1]; 10 mg/kg i.p., 2 hours, vs vehicle): significantly increased | Brain 2-AG levels (Example 8) [1, 5]: without affecting | Brain AEA levels (Example 8) [1, 5]: increased | Brain 2-AG levels after JZL-184 treatment, compared to JZL-184 alone ([1]; combination treatment): additional significant increase | Brain AEA levels when combined with PF-3845, compared to PF-3845 alone ([1]; combination treatment): significant additional increase | Brain or lung PG levels (Example 8) ([1]; dose not stated): did not affect | Brain AEA and 2-AG levels in CB1^(−/−) mice ([1]; mouse, in vivo): significantly increased | Brain PG levels in CB1^(−/−) mice ([1]; mouse, in vivo): no effect; also recorded: without affecting | Ability to increase brain AEA levels in COX-2 knockout (KO) mice ([1]; present in wild type littermates): absent | Brain AEA levels in WT and FAAH KO mice ([1]; similar extent in both genotypes): increased | Gastrointestinal hemorrhage [2]: not to cause gastrointestinal hemorrhage | Indomethacin in brain extract after Compound A treatment [3]: not detected | Presence of compound in brain [3]: present in the brain | Memory deficits in the novel object recognition assay (ICR mice): did not induce memory deficits
